For the assay, the target named is Beta-lactamase TEM (Escherichia coli) (UniProt P62593). The assay can be described thus: Kd for TEM-1 beta-lactamase.
Chain of Beta-lactamase TEM (Escherichia coli) (P62593 whole entry, looked up): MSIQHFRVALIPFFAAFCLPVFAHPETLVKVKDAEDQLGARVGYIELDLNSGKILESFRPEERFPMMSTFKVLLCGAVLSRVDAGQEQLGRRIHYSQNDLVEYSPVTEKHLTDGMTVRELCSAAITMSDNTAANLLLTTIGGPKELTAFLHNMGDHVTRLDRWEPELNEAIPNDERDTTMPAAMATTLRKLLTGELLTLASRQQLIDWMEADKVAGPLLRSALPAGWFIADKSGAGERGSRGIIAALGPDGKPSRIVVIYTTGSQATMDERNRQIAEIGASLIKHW

In turn, `C/C=C1\O[C@@H]2CC(=O)N2[C@H]1C(=O)O` [Sodium; (2R,5R)-3-eth-(Z)-ylidene-7-oxo-4-oxa-1-aza-bicyclo[3.2.0]heptane-2-carboxylate] came in with a Kd of 800 nM.

Source of the values: BindingDB's records for doi:10.1016/0960-894X(95)00162-M (1995).
